Data taken from paper PMC9497135, “Structure-Based Study to Overcome Cross-Reactivity of Novel Androgen Receptor Inhibitors” (Cells, 2022).
Substitutions are numbered along the chain they refer to.

Assays:
[1] = system: AR with T878A and W742C mutations; set-up: method as in PMID 12517791; conditions: cited from earlier work
[2] = molecular target: T1, AR (LNCaP cells, which carry the T878A AR mutation) (Homo sapiens, UniProt P10275, T878A); experiment: eGFP cellular AR transcription assay in LNCaP cells (LN-ARR2PB-eGFP); type: cell-based; conditions: for Anti-AR activity in eGFP assay: eGFP-expressing LNCaP cells; for Partial agonistic effect in eGFP assay: with R1881, high concentrations
T1 construct: LNCaP cells, which carry the T878A AR mutation; endogenous in cells; host or cells: LNCaP (LN-ARR2PB-eGFP)
T1 sequence (P10275 1-920 T878A): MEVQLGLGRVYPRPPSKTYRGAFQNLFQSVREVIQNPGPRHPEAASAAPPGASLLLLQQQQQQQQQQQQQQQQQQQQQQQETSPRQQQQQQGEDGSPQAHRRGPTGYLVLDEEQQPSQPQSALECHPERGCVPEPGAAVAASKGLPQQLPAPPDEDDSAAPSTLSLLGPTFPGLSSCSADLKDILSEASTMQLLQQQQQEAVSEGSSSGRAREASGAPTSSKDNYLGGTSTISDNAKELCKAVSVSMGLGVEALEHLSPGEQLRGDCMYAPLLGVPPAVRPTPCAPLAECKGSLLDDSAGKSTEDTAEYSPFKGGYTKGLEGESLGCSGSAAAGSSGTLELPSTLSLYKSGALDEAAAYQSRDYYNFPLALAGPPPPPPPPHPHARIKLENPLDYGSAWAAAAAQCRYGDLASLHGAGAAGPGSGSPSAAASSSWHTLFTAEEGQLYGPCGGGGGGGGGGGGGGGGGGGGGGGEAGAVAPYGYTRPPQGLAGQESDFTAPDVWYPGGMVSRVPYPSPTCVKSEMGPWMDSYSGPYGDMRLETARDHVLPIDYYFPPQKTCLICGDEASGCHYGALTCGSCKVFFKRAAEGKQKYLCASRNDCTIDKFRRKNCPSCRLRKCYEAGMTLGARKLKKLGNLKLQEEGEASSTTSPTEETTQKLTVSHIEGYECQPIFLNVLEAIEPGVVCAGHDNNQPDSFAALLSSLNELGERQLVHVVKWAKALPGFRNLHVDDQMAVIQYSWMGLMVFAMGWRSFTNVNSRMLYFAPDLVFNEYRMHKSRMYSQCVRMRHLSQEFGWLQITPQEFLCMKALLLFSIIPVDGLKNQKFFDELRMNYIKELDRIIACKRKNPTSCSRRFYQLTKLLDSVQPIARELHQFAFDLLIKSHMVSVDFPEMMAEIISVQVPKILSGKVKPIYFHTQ
Protocol: AR transcriptional activity was assayed as previously described. Briefly, LNCaP human prostate cancer cells (LN-ARR2PB-eGFP), stably transfected with eGFP reporter driven by an androgen responsive probasin-derived promoter (ARR2PB), were grown in phenol red free RPMI 1640 media supplemented with 5% charcoal stripped serum (CSS). After 5 days, the cells were plated into a 96-well plate (35,000 cells/well) with 0.1 nM of the synthetic androgen R1881 and increasing concentrations (0−100 μM) of test compounds. Fluorescence (excitation 485 nm, emission 535 nm) was measured after 3 days of incubation with the compounds.

Androgen Receptor ABS = molecular target: T2, Androgen Receptor ABS (Rattus norvegicus, UniProt P15207); experiment: Androgen (DHT) displacement, Polar Screen Androgen Receptor Competitor Green Assay Kit; type: binding; conditions: for Androgen displacement: at 50 µM; for Androgen Displacement (Yes/No): fluorescence polarization kit
T2 construct: purchased
T2 sequence (P15207 647-902 limits assumed): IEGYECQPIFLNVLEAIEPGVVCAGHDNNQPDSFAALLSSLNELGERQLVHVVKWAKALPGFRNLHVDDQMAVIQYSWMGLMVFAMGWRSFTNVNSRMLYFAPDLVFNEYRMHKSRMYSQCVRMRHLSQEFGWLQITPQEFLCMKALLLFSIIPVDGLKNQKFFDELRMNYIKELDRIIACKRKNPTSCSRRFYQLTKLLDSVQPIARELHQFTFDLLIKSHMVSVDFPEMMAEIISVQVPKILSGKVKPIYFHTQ
Protocol: Androgen displacement was assessed with the Polar Screen Androgen Receptor Competitor Green Assay Kit as per the instructions of the manufacturer.

T878A-AR mutant = molecular target: T3, T878A-AR mutant (Homo sapiens, UniProt P10275, T878A); experiment: Luciferase reporter assay, PC3 cells transfected with T878A-AR; type: cell-based; conditions: T878A-AR, high concentrations, absence of R1881
T3 construct: Full-length human wild type AR was cloned into pcDNA3.1 expression plasmid; expressed in transfected cells; host or cells: PC3
T3 sequence (P10275 1-920 T878A): T1 sequence (P10275 1-920 T878A)
Protocol: Full-length human wild type AR was cloned into pcDNA3.1 expression plasmid (Invitrogen, Waltham, MA, USA) with a CMV promoter. The T878A mutant (T878A-AR) was generated with the Quikchange Mutagenesis Kit (Stratagene, San Diego, CA, USA) using hARWT plasmid as a template. Androgen-starved PC3 cells were seeded in 96-well plates (3000 cells/well) in RPMI 1640 + 5% CSS for 24 h followed by transfection with 50 ng of hARWT or hART878A along with 50 ng of ARR3tk-luciferase reporter construct (100 ng total plasmid DNA) and 0.3 µL/well TransIT20/20 transfection reagent (TT2020, Mirus, Madison, Wisconsin, WI, USA) for 48 h. […] Cell lysis was carried out with 60 µL 1X passive lysis buffer/well (Promega, Madison, Wisconsin, WI, USA). The luminescence from 20 µL of cell lysate and 50 µL of Luciferase assay reagent (Promega, Madison, Wisconsin, WI, USA) was recorded on a TECAN M200pro plate reader.

wild type AR LBD = molecular target: T4, wild type AR LBD (Homo sapiens, UniProt P10275); experiment: Biolayer interferometry (BLI), wild type LBD; type: binding
T4 construct: made in house; host or cells: E. coli BL21-DE3 co-transformed with pBirACm
T4 sequence (P10275 669-900 limits assumed): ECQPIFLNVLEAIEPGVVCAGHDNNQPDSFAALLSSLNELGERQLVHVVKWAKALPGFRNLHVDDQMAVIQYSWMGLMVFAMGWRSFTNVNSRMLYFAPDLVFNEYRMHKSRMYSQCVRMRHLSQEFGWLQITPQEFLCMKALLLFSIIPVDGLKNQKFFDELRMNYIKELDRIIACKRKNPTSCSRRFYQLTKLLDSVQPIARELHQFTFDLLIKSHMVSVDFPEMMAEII
Protocol: (§1) The direct reversible interaction between small molecules and the AR was quantified by BLI using OctetRED (ForteBio, Fremont, CA, USA). The wild type and T878A-LDB in fusion with an N-terminal (His)6-avidin ([…]) tag were expressed in E. coli BL21-DE3 cells co-transformed with pBirACm plasmid (Avidity), which expresses a biotin ligase leading to the biotynilation of the avidin tag on the LBD. Cells were grown in LB media at 37 °C to an OD600nm = 0.5 and then induced with 0.5 mM isopropyl-β-D-thiogalactoside. A measure of 20 µM of dihydrotestosterone (DHT) and 0.15 mM biotin were added and the cells were incubated at 16 °C for 18 to 20 h. Cells were then resuspended and lysed in buffer containing 500 mM Li2SO4, 50mM HEPES pH7.2, 10% Glycerol, 0.1% Octyl-beta-Glucoside, 20 µM of DHT, 5 mM β-mercaptoethanol, 10 mM imidazole and 0.1 mM phenylmethanesulfonyl fluoride. […] After an overnight dialysis against 150 mM Li2SO4, 50 mM HEPES pH7.2, 10% Glycerol, 0.1% Octyl-beta-Glucoside, 20 µM of DHT and 0.2 mM tris(2-carboxyethyl)phosphine, purified proteins at 50 µg/mL were bound to the super-streptavidin sensors overnight at 4 °C. The assay was performed at 20 °C in the dialysis buffer supplemented with 5% dimethyl sulfoxide (DMSO) which was also used as our reference measurement.

T878A AR LBD = molecular target: T5, T878A AR LBD (Homo sapiens, UniProt P10275, T878A); experiment: Biolayer interferometry (BLI), T878A LBD; type: binding
T5 construct: made in house; host or cells: E. coli BL21-DE3 co-transformed with pBirACm
T5 sequence (P10275 669-900 T878A limits assumed): T4 sequence (P10275 669-900 limits assumed) with T210A
Protocol: as §1

[3] = LNCaP eGFP reporter (ARR2PB promoter), 0.1 nM R1881, 3 days

SMILES | Reporter eGFP IC50 [2, 3] | Anti-AR activity in eGFP assay [2] | Partial agonistic effect in eGFP assay ([2]; LNCaP) | Androgen displacement (Androgen Receptor ABS) [%] | Androgen Displacement (Yes/No) (Androgen Receptor ABS) | also measured
C[C@](O)(CS(=O)(=O)c1ccc(F)cc1)C(=O)Nc1ccc(C#N)c(C(F)(F)F)c1 [R-bicalutamide] | – | – | – | – | – | Agonist behaviour on mutated AR [1]: acts as an agonist only when the T878A mutation is also coupled with W742C
c1cc2c(cc1-c1csc(N3CCOCC3)n1)CCCC2 [VPC14291] | inactive | lost their anti-AR activity | – | – | – | –
c1sc(N2CCOCC2)nc1C1CCCC1 [VPC14403] | inactive | lost their anti-AR activity | – | – | – | –
c1cc(-c2csc(N3CCOCC3)n2)cs1 [VPC14404] | – | maintained good potency | no undesired partial agonistic effects were observed | <10 | – | –
c1sc(N2CCOCC2)nc1C1CCCCC1 [VPC14406] | inactive | lost their anti-AR activity | – | – | – | –
c1cc(-c2csc(N3CCOCC3)n2)ccn1 [VPC14435] | – | maintained good potency | no undesired partial agonistic effects were observed | – | No | –
c1ccc(-c2csc(N3CCOCC3)n2)nc1 [VPC14436] | – | – | – | – | No | –
c1cncc(-c2csc(N3CCOCC3)n2)c1 [VPC14439] | – | – | – | 30 | Yes | Concentration above which partial agonism is seen in the eGFP assay ([2]; LNCaP, 0.1 nM R1881): above 3 µM
Brc1ncn(-c2csc(N3CCOCC3)n2)c1Br [VPC14449] | – | maintained good potency | no undesired partial agonistic effects were observed | < 10 | – | IC50 [2, 3]: 0.15 ± 0.04 µM; Reduction of AR stimulation in comparison with VPC14368 (T878A-AR mutant): ~ 80%; Direct binding to wild-type LBD by BLI (wild type AR LBD): not binding; Androgen displacement (Androgen Receptor ABS; listed as 14449): <10%; Direct binding to T878A LBD by BLI (T878A AR LBD): not binding
